Measured values as given in patent US7217723B2, “Heterocyclic compound having oxime group” (Eisai Co., Ltd., priority 2004, dated 2007).
pIC50: −log10 of the molar value.

Tested on: STAT6 activation
Assay: STAT6 activation inhibition test (IL-4-induced alkaline phosphatase STAT6 reporter gene assay)
Format: cell-based, human
Conditions: Homo sapiens, HEK293; concentration giving 50% suppression of alkaline phosphatase activity induced by IL-4 (1 ng/mL), 16 hours; 293 cells stably expressing STAT6 gene and STAT6 reporter gene
Method: The inhibitory activity on STAT6 activation of the compound according to present invention was evaluated according to the following test.
1) Construction of the STAT6 Reporter Gene
The oligonucleotide of SEQ ID: 1 resuting from three STAT6 binding regions of the human immunoglobulin germline ε gene promoter linked togeter, and the complementary strand thereof were mixed, and after thermal denaturation and annealing, the 5′ and the 3′ ends were respectively cut with the restriction enzymes Kpn I (TaKaRa Shuzo Code No. 1068A) and Xba I (TaKaRa ShuzoCode No. 1093A), and the resulting fragment was cloned into the Kpn I/Xba I site of the pUG-BGH-PLAP vector (described in Molecular Pharmacology, 49: 860–873 1996). In addition, the TK promoter region of the herpesvirus for inducing general transcription factors was cloned into the Xba I/Hind III (TaKaRa ShuzoCode No. 1060A) site of the pUG-BGH-PLAP vector. Then, to collect a stable expression cell strain, the neomycin resistance gene, that is a PGK-neo expression cassette, was incorporated into the Sal I (TaKaRa Shuzo, Code No. 1080A) site of this vector. Cloning of the TK promoter and the PGK-neo expression cassette was carried out according to Molecular Pharmacology, 49: 860–873 1996.
2) Construction of the STAT6 Expression Vector
Using the oligonucleotide of SEQ ID: 2 containing the initiation codon of the STAT6 gene and the oligonucleotide of SEQ ID: 3 containing the stop codon, Total RNA was prepared from human peripheral blood cells with the RNeasy Mini kit (OIAGEN, Code No. 74104). Thereafter, a reverse transcription reaction was carried out with the Takara RNA LA PCR kit (TaKaRa Shuzo, Code No. RR012A) to prepare cDNA, and using the primers of SEQ ID: 2 and 3, a PCR reaction was carried out, to amplify the STAT6 gene.
PCR product was digested with EcoR I (TaKaRa Shuzo, Code No. 1040A) and Xho I (TaKaRa Shuzo, 1094A), thereafter, the digested fragment was isolated on an agarose gel. The isolated fragment was incorporated into the vector fragment derived from the EcoR I/Xho I digestion of the pcDNA3.1 (+) (invtrogen, Code No. U790-20) vector.
3) Transformation and Preparation of a Stable Expression Cell Strain
In a Falcon 6-well plate for tissue culture (Becton Dickinson, Code No. 35-3046), 3.0×10^5 of 293 cells derived from human embryo kidney (American Type Culture Collection) were distributed and cultured overnight. The STAT6 reporter gene (1.5 μg), the STAT6 gene (1.5 μg) that were prepared and lipofectamine (GIBCO BRL, Code No. 18324-012) (20 μL) were mixed in OPTI-MEM culture medium (GIBCO BRL, Code No. 31985-070) (0.3 mL), and allowed to stand at room temperature for 20 minutes. Thereafter, the OPTI-MEM culture medium (1.2 mL) was further added, OPTI-MEM culture medium not containing fetal calf serum was added to washed cells, which were cultured for 2 hours. A culture medium (1.5 mL) containing fetal calf serum was added, and the cells were cultured for 19 more hours. The culture was continued by exchanging the culture medium and adding Geneticin (SIGMA, Code No. G-5013) so as to obtain 1 mg/mL, and cells with drug tolerance were selected. The selected drug tolerant cells were suspended in a culture medium containing 1 mg/mL of Geneticin, and distributed in a 96-well microplate (Becton Dickinson, Code No. 35-3072) so as to obtain 0.5 cells/well to carrry out cloning, and the clones expressing alkaline phosphatase in response to IL-4 were collected.
4) STAT6 Activation Inhibition Test
Cells stably expressing the STAT6 gene and the STAT6 reporter gene, and expressing alkaline phosphatase in response to IL-4 were distributed in a 96-well microplate (Becton Dickinson, Code No. 35-3072) so as to obtain 5000 cells/180 μL/well, and cultured overnight. […]

Going from CN(CCc1cccnc1)S(=O)(=O)c1csc2c1CCC/C2=N/O [Example 7, (7Z)-7-Hydroxyimino-4,5,6,7-tetrahydro-benzo[b]thiophene-3-sulfonic acid methyl-(2-pyridine-3-yl-ethyl)-amide] to CN(CCc1ccncc1)S(=O)(=O)c1csc2c1CCC/C2=N/O [Example 9, (7Z)-7-Hydroxyimino-4,5,6,7-tetrahydro-benzo[b]thiophene-3-sulfonic acid methyl-(2-pyridine-4-yl-ethyl)-amide], the pIC50 rises from 8.32 to 9.09 (0.77 log units).

Compared with CN(C[C@@H](O)c1ccc(F)cc1)S(=O)(=O)c1csc2c1CCC/C2=N/O [Example 13, (7Z)-N-[(2S)-2-(4-Fluorophenyl)-2-hydroxyethyl]-7-(hydroxyimino)-N-methyl-4,5,6,7-tetrahydro-1-benzothiophene-3-sulfonamide], CN(C[C@H](O)c1ccc(F)cc1)S(=O)(=O)c1csc2c1CCC/C2=N/O [Example 14, (7Z)-N-[(2R)-2-(4-Fluorophenyl)-2-hydroxyethyl]-7-(hydroxyimino)-N-methyl-4,5,6,7-tetrahydro-1-benzothiophene-3-sulfonamide] is 1.92 log units lower in pIC50: 9.44 for the first, 7.52 for the second. The first is the more potent here.

First: CN(CC(O)c1ccncc1)S(=O)(=O)c1csc2c1CCC/C2=N/O (centres unmarked) [Example 21, (7Z)-7-Hydroxyimino-4,5,6,7-tetrahydro-benzo[b]thiophene-3-sulfonic acid (2-hydroxy-2-pyridine-4-yl-ethyl)-methyl-amide]
Second: CN(CC(O)c1ccc(F)cc1)S(=O)(=O)c1c(N)sc2c1CCC/C2=N/O (centres unmarked) [Example 26, (7Z)-2-Amino-7-hydroxyimino-4,5,6,7-tetrahydro-benzo[b]-thiophene-3-sulfonic acid [2-(4-fluorophenyl)-2-hydroxyethyl]-methyl-amide]
The pIC50 of the first is 0.34 log units lower: 8.25 for the first, 8.59 for the second. The second is the more potent here.

Compared with CN(CC(O)c1ccc(F)cc1)S(=O)(=O)c1c(N)sc2c1CCC/C2=N\O (centres unmarked) [Example 27, (7E)-2-Amino-7-hydroxyimino-4,5,6,7-tetrahydro-benzo[b]-thiophene-3-sulfonic acid [2-(4-fluorophenyl)-2-hydroxyethyl]-methyl-amide], CC(C)C(=NO)c1cc(S(=O)(=O)N(C)CC(O)c2ccc(F)cc2)cs1 (centres unmarked) [Example 48, 5-(1-Hydroxyimino-2-methylpropyl)thiophene-3-sulfonic acid [2-(4-fluorophenyl)-2-hydroxyethyl]-methyl-amide] is 0.44 log units lower in pIC50: 7.96 for the first, 7.52 for the second. The first is the more potent here.

CC(C)C(=NO)c1cc(S(=O)(=O)N(C)CCc2ccc(F)cc2)cs1 [Example 47, 5-(1-Hydroxyimino-2-methylpropyl)thiophene-3-sulfonic acid [2-(4-fluorophenyl)-ethyl]-methyl-amide] showed a pIC50 of 7.92.

Same assay, conditions: concentration giving 50% suppression of alkaline phosphatase activity induced by IL-4 (1 ng/mL), 16 hours; 293 cells stably expressing STAT6 gene and STAT6 reporter gene

Going from CN(CC(O)c1ccc(F)cc1)S(=O)(=O)c1csc2c1CCC/C2=N/O (centres unmarked) [Example 1, (7Z)-7-Hydroxyimino-4,5,6,7-tetrahydro-benzo[b]thiophene-3-sulfonic acid[2-(4-fluorophenyl)-2-hydroxyethyl]-methyl-amide] to CN(CC(O)c1ccc(F)cc1)S(=O)(=O)c1csc2c1CCC/C2=N\O (centres unmarked) [Example 2, (7E)-7-Hydroxyimino-4,5,6,7-tetrahydro-benzo[b]thiophene-3-sulfonic acid[2-(4-fluorophenyl)-2-hydroxyethyl]-methyl-amide], the pIC50 rises from 8.95 to 9.66 (0.71 log units).

Compared with CN(CCc1ccc(F)cc1)S(=O)(=O)c1csc2c1CCC/C2=N/O [Example 3, (7Z)-7-Hydroxyimino-4,5,6,7-tetrahydro-benzo[b]thiophene-3-sulfonic acid[2-(4-fluorophenyl)-ethyl]-methyl-amide], CC1CCc2c(S(=O)(=O)N(C)CCc3ccc(F)cc3)csc2/C1=N\O (centres unmarked) [Example 31, (7Z)-7-Hydroxyimino-6-methyl-4,5,6,7-tetrahydrobenzo[b]-thiophene-3-sulfonic acid[(2-(4-fluorophenyl)ethyl)]-methyl-amide] is 0.85 log units lower in pIC50: 9.22 for the first, 8.37 for the second.

Compared with CN(CCc1ccc(F)cc1[N+](=O)[O-])S(=O)(=O)c1csc2c1CCC/C2=N/O [Example 5, (7Z)-7-Hydroxyimino-4,5,6,7-tetrahydro-benzo[b]thiophene-3-sulfonic acid[2-(4-fluoro-2-nitro-Phenyl)-ethyl]-methyl-amide], CN(CCc1ccc(F)c([N+](=O)[O-])c1)S(=O)(=O)c1csc2c1CCC/C2=N/O [Example 6, (7Z)-7-Hydroxyimino-4,5,6,7-tetrahydro-benzo[b]thiophene-3-sulfonic acid[2-(4-fluoro-3-nitro-phenyl)-ethyl]-methyl-amide] is 0.63 log units higher in pIC50: 7.68 for the first, 8.31 for the second. The second is the more potent here.

CN(CC(O)c1ccc(F)cc1F)S(=O)(=O)c1csc2c1CCC/C2=N/O (centres unmarked) [Example 17, (7Z)-7-Hydroxyimino-4,5,6,7-tetrahydro-benzo[b]thiophene-3-sulfonic acid[2-(2,4-difluorophenyl)-2-hydroxyethyl]-methyl-amide] and CN(CC(NC(N)=O)c1ccc(F)cc1)S(=O)(=O)c1csc2c1CCCC2=NO (centres unmarked) [Example 25, 7-Hydroxyimino-4,5,6,7-tetrahydrobenzo[b]thiophene-3-sulfonic acid [(2-(4-fluorophenyl)-2-ureideethyl)]-methyl-amide] are within 0.2 log units of each other in pIC50: 7.81 for the first, 7.89 for the second.

CC1CCc2c(S(=O)(=O)N(C)CC(O)c3ccc(F)cc3)csc2/C1=N\O (centres unmarked) [Example 32, (7Z)-7-Hydroxyimino-6-methyl-4,5,6,7-tetrahydrobenzo[b]-thiophene-3-sulfonic acid[(2-(4-fluorophenyl)-2-hydroxyethyl)]-methyl-amide] and CN(CCc1ccc(F)cc1)S(=O)(=O)c1csc2c1CCC(O)/C2=N/O (centres unmarked) [Example 33, (7Z)-6-Hydroxy-7-hydroxyimino-4,5,6,7-tetrahydrobenzo[b]-thiophene-3-sulfonic acid[(2-(4-fluorophenyl)ethyl)]-methyl-amide] are within 0.2 log units of each other in pIC50: 8.00 for the first, 7.96 for the second.

Going from C/C(=N/O)c1ccc(S(=O)(=O)N(C)CCc2ccc(F)cc2)s1 [Example 37] to C/C(=N/O)c1cc(S(=O)(=O)N(C)CCc2ccc(F)cc2)c(N)s1 [Example 60, 2-Amino-5-[(1Z)-hydroxyimino-ethyl]-thiophene-3-sulfonic acid [2-(4-fluorophenyl)-ethyl]-methyl-amide], the pIC50 rises from 7.52 to 8.80 (1.28 log units). The second is the more potent here.

Compared with C/C(=N/O)c1cc(S(=O)(=O)N(C)CC(O)c2ccc(F)cc2)cs1 (centres unmarked) [Example 44], C/C(=N/O)c1cc(S(=O)(=O)N(C)CC(O)c2ccc(F)cc2)c(N)s1 (centres unmarked) [Example 52, 2-Amino-5-[(1Z)-hydroxyimino-ethyl]-thiophene-3-sulfonic acid [2-(4-fluorophenyl)-2-hydroxyethyl]-methyl-amide] is 1.10 log units lower in pIC50: 9.20 for the first, 8.10 for the second. The first is the more potent here.

First: C/C(=N\O)c1cc(S(=O)(=O)N(C)CCc2ccc(F)cc2)c(N)s1 [Example 61, 2-Amino-5-[(1E)-hydroxyimino-ethyl]-thiophene-3-sulfonic acid [2-(4-fluorophenyl)-ethyl]-methyl-amide]
Second: CC(C)/C(=N/O)c1cc(S(=O)(=O)N(C)CCc2ccc(F)cc2)c(N)s1 [Example 63, 2-Amino-5-[(1Z)-hydroxyimino-2-methylpropyl]thiophene-3-sulfonic acid[2-(4-fluorophenyl)ethyl]-methyl-amide]
The pIC50 of the first is 0.22 log units lower: 7.18 for the first, 7.40 for the second.

CC(C)C(=NO)c1cc(S(=O)(=O)N(C)CC(O)c2ccc(F)cc2)c(N)s1 (centres unmarked) [Example 64, 2-Amino-5-(1-hydroxyimino-2-methylpropyl)thiophene-3-sulfonic acid[2-(4-fluorophenyl)-2-hydroxyethyl]-methyl-amide] showed a pIC50 of 7.40.
